Measured values from patent publication US20110009263A1, “SELECTED SALTS OF 3-(5,6-DIHYDRO-1,4,2-DIOXAZIN-3-YL)-N-[(4,6-DIMETHOXYPYRIMIDIN-2-YL)CARBAMOYL]PYRIDINE-2-SULFONAMIDE, METHOD FOR THE PRODUCTION THEREOF, AND USE THEREOF AS HERBICIDES AND PLANT GROWTH REGULATORS” (priority 2008, published 2011).

Tests used:
Format in all cases: in vivo
Ambrosia elatior = settings: for AMBEL (post-emergence herbicidal action score): 2-4 leaf stage, 5 g of a.i./ha, scored after four weeks, 0=no damage, 100=complete control
Protocol: (§1) Seeds or rhizome pieces of monocotyledonous and dicotyledonous weeds were placed in sandy loam in plastic pots (Jiffy pots), covered with soil and cultivated in a greenhouse under good and defined growth conditions, i.e. at a day/night rhythm of 22° C./14° C. At the 2-4 leaf stage, the plants were then treated with an aqueous test solution of various compounds according to the invention at the stated dosage. After four weeks, the tests were scored according to the scheme below:
(§2) 0=no damage; 100=complete control
(§3) The control used was the Na^+ salt of 3-(5,6-dihydro-1,4,2-dioxazin-3-yl)-N-[(4,6-dimethoxypyrimidin-2-yl)carbamoyl]pyridine-2-sulfonamide which is already known from U.S. Pat. No. 5,476,936.

Eleusine indica = settings: for ELEIN (post-emergence herbicidal action score): 2-4 leaf stage, 5 g of a.i./ha, scored after four weeks, 0=no damage, 100=complete control
Protocol: as §1, §2, §3

Matricaria inodora = settings: pre-emergence, application rate of 0.08 kg or less of active substance per hectare, 3 to 4 weeks
Excerpt: (§4) Seeds or rhizome pieces of mono- and dicotyledonous weeds were placed in sandy loam in cardboard pots and covered with soil. The compounds according to the invention, formulated in the form of wettable powders or emulsion concentrates, were then applied to the surface of the covering soil in the form of aqueous suspensions or emulsions at an application rate of 100 to 800 l of water/ha (converted), at various dosages.
(§5) After the treatment, the pots were placed in a greenhouse and kept under good growth conditions for the weeds. The visual scoring of the damage to the plants or the emergence damage was carried out after the emergence of the test plants after a test period of 3 to 4 weeks, by comparison with untreated controls. As shown by the results, the compounds according to the invention have good herbicidal pre-emergence activity against a broad spectrum of weed grasses and broad-leaved weeds.

Papaver rhoeas = settings: pre-emergence, application rate of 0.08 kg or less of active substance per hectare, 3 to 4 weeks
Excerpt: as §4, §5

Stellaria media = settings: pre-emergence, application rate of 0.08 kg or less of active substance per hectare, 3 to 4 weeks
Excerpt: as §4, §5

Viola tricolor = settings: pre-emergence, application rate of 0.08 kg or less of active substance per hectare, 3 to 4 weeks
Excerpt: as §4, §5

Molecule	AMBEL (post-emergence herbicidal action score) (Ambrosia elatior)	ELEIN (post-emergence herbicidal action score) (Eleusine indica)	herbicidal activity against Matricaria inodora (Matricaria inodora)	herbicidal activity against Papaver rhoeas (Papaver rhoeas)	herbicidal activity against Stellaria media (Stellaria media)	herbicidal activity against Viola tricolor (Viola tricolor)	control of Ambrosia elatior (Ambrosia elatior; post-emergence) [%]	effectiveness against the dicotyledonous weed Ambrosia elatior (in words) (Ambrosia elatior; post-emergence)	controlling action against the monocotyledonous weed Eleusine indica (in words) (Eleusine indica; post-emergence)
COc1cc(OC)nc(NC(=O)[N-]S(=O)(=O)c2ncccc2C2=NOCCO2)n1.[Li+] [Compound I-1, Lithium {[3-(5,6-dihydro-1,4,2-dioxazin-3-yl)pyridin-2-yl]sulfonyl}[(4,6-dimethoxypyrimidin-2-yl)carbamoyl]azanide]	80	85	very good herbicidal activity	very good herbicidal activity	very good herbicidal activity	very good herbicidal activity	–	–	–
COc1cc(OC)nc(NC(=O)[N-]S(=O)(=O)c2ncccc2C2=NOCCO2)n1.[K+] [Compound I-2, Potassium {[3-(5,6-dihydro-1,4,2-dioxazin-3-yl)pyridin-2-yl]sulfonyl}[(4,6-dimethoxypyrimidin-2-yl)carbamoyl]azanide]	80	80	very good herbicidal activity	very good herbicidal activity	very good herbicidal activity	very good herbicidal activity	–	–	–
2-hydroxy-N,N,N-trimethylethanaminium {[3-(5,6-dihydro-1,4,2-dioxazin-3-yl)pyridin-2-yl]sulfonyl}[(4,6-dimethoxypyrimidin-2-yl)carbamoyl]azanide [Compound I-38]	80	85	very good herbicidal activity	very good herbicidal activity	very good herbicidal activity	very good herbicidal activity	–	–	–
2-Chloro-N,N,N-trimethylethanaminium {[3-(5,6-dihydro-1,4,2-dioxazin-3-yl)pyridin-2-yl]sulfonyl}[(4,6-dimethoxypyrimidin-2-yl)carbamoyl]azanide [Compound I-39]	80	93	very good herbicidal activity	very good herbicidal activity	very good herbicidal activity	very good herbicidal activity	–	–	–
CC(C)N.COc1cc(OC)nc(NC(=O)NS(=O)(=O)c2ncccc2C2=NOCCO2)n1 [Compound I-14, Propan-2-aminium {[3-(5,6-dihydro-1,4,2-dioxazin-3-yl)pyridin-2-yl]sulfonyl}[(4,6-dimethoxypyrimidin-2-yl)carbamoyl]azanide]	90	80	very good herbicidal activity	very good herbicidal activity	very good herbicidal activity	very good herbicidal activity	–	–	–
2-Hydroxy-N-(2-hydroxyethyl)ethanaminium {[3-(5,6-dihydro-1,4,2-dioxazin-3-yl)pyridin-2-yl]sulfonyl}[(4,6-dimethoxypyrimidin-2-yl)carbamoyl]azanide [Compound I-35]	85	80	very good herbicidal activity	very good herbicidal activity	very good herbicidal activity	very good herbicidal activity	–	–	–
COc1cc(OC)nc(NC(=O)NS(=O)(=O)c2ncccc2C2=NOCCO2)n1.N [Compound I-5, Ammonium {[3-(5,6-dihydro-1,4,2-dioxazin-3-yl)pyridin-2-yl]sulfonyl}[(4,6-dimethoxypyrimidin-2-yl)carbamoyl]azanide]	75	80	very good herbicidal activity	very good herbicidal activity	very good herbicidal activity	very good herbicidal activity	≥ 75	–	–
COc1cc(OC)nc(NC(=O)NS(=O)(=O)c2ncccc2C2=NOCCO2)n1.[Na] [control, Na^+ salt of 3-(5,6-dihydro-1,4,2-dioxazin-3-yl)-N-[(4,6-dimethoxypyrimidin-2-yl)carbamoyl]pyridine-2-sulfonamide, reference compound]	20	75	–	–	–	–	–	controlled relatively weakly	good controlling action
2-(Acetyloxy)-N,N,N-trimethylethanaminium {[3-(5,6-dihydro-1,4,2-dioxazin-3-yl)pyridin-2-yl]sulfonyl}[(4,6-dimethoxypyrimidin-2-yl)carbamoyl]azanide [Compound I-40]	80	93	very good herbicidal activity	very good herbicidal activity	very good herbicidal activity	very good herbicidal activity	–	–	–
